The record followed here is patent US6399618B1, “Compositions and methods for modulating sexual activity” (priority 1997, dated 2002).

In assay [1] the test system is noradrenaline pre-contracted rabbit CC. Description: Direct action on penile erection: tone of corpus cavernosal muscle strips in organ bath. The note with it: concentration from 10^-8 M to 10^-4 M; n=6. How it is done: Corpus cavernosal (CC) muscle strips were prepared from penises obtained from rabbit (n=6). CC strips were dissected free from tunica albungia and mounted in 10 or 25 mL organ baths containing Tyrode solution saturated with 95%O2/5% CO2 mixture.

Assay [2] has as its system male rats. Nature of the assay: Rat procopulatory actions (copulatory behavior with receptive female). It is filed as in vivo, Long-Evans rats. How it is done: Male Long-Evans rats (300-600 g; n=15 per group) were injected with saline or XVIb (1.5-30.5 mg/kg; ip) 5 minutes prior to being paired with a female rat sexually receptive by administration of estradiol benzoate (25 μg; 48 hours prior to testing) and progesterone (1 mg/kg; 4 hours prior to testing). Mount latency, intromission latency, ejaculation latency, mounts, intromissions, ejaculations and post ejaculatory interval were recorded over a 30 minutes observation period.
In Table 3, the effect of compound XVIb on copulatory behavior in male rats is shown. Data are expressed as mean (sem for 15 test animals). Latency is the time in seconds to appearance of that behavior. Ejaculations are the number of such events during 30 minutes of observation. Intromissions are the number of such events before ejaculation. Post ejaculatory interval is the time in seconds from ejaculation on intromission to the first mount of the next copulatory sequence. P values derived from two-tailed t-test for significance between mean values (α<0.05).

Setting [3] is: 15 mg/kg ip, n=15, 30 minutes observation.

Where a name gives a salt, the structure may show the parent alone.

As for `CN1CCN(C(=O)Cc2ccc3ccccc3c2)CC1` [Compound XVIb, 1-Methyl-4(2-naphthaleneacetyl)piperazine monohydrochloride], the “effect on tone of noradrenaline pre-contracted rabbit CC” value in assay [1] was “failed to reduce tone”. In addition, the “number of intromissions (in words)” value in assay [2] (7.5 mg/kg and 30.5 mg/kg only, data is not shown) is “reducing the number of intromissions”. The Post ejaculatory interval in assay [2] (15 mg/kg ip, n=15) worked out at 426.6 ± 28.5 s. Moreover, in assay [2] (setting [3]), the Ejaculation latency was determined as 330.9 ± 31.5 s, the Intromission latency was determined as 405.1 ± 88.0 s and the Mount latency was 204.5 ± 31.9 s. For the same compound, in assay [2] (15 mg/kg ip, n=15, before ejaculation), the Intromissions turned out to be 6.9 ± 0.7. Further, the ejaculations in assay [2] (15 mg/kg ip, n=15, during 30 minutes of observation) worked out at 4.7 ± 0.2. Besides, the “Post ejaculatory interval (in words)” value in assay [2] (any of doses tested (1.5-30.5 mg/kg ip)) is listed as “not affected”. Besides, the “copulatory behaviors (in words)” value in assay [2] (doses above and below 15 mg/kg) is “without significant effects”.
